# Experimental data reported in ChEMBL document CHEMBL4364276, “Discovery of 4-phenyl-2H-benzo[b][1,4]oxazin-3(4H)-one derivatives as potent and orally active PI3K/mTOR dual inhibitors” (Eur J Med Chem, 2019).
# Key:
# [1] = tested on: HeLa; assay: Antitumor activity against human HeLa cells xenografted in BALB/c nude mouse assessed as tumor growth inhibition at 20 mg/kg, ig administered for 30 days measured every 3 days during compound dosing relative to control; type: functional; conditions: po, read-out: TGI
# [2] = molecular target: Calcium/calmodulin-dependent protein kinase kinase 1 (Homo sapiens) (UniProt Q8N5S9); assay: Inhibition of human CAMKK1 at 100 nM using MBP as substrate by [gamma-33P]-ATP assay
# [3] = molecular target: Cyclin-dependent kinase 14/Cyclin-Y (Homo sapiens) (UniProt O94921+Q8ND76); assay: Inhibition of human CDK14/cyclin-Y at 100 nM using RB protein as substrate by [gamma-33P]-ATP assay; type: protein-complex assay
# [4] = molecular target: CDK2/Cyclin O (Homo sapiens) (UniProt P24941+P22674); assay: Inhibition of human CDK2/cyclin-O at 100 nM using histone H1 as substrate by [gamma-33P]-ATP assay; type: protein-complex assay
# [5] = molecular target: Casein kinase I isoform gamma-2 (Homo sapiens) (UniProt P78368); assay: Inhibition of human CK1gamma2 at 100 nM using KRRRAL[pS]VASLPGL as substrate by [gamma-33P]-ATP assay
# Chain of Casein kinase I isoform gamma-2 (Homo sapiens) (P78368 whole entry, looked up, canonical isoform): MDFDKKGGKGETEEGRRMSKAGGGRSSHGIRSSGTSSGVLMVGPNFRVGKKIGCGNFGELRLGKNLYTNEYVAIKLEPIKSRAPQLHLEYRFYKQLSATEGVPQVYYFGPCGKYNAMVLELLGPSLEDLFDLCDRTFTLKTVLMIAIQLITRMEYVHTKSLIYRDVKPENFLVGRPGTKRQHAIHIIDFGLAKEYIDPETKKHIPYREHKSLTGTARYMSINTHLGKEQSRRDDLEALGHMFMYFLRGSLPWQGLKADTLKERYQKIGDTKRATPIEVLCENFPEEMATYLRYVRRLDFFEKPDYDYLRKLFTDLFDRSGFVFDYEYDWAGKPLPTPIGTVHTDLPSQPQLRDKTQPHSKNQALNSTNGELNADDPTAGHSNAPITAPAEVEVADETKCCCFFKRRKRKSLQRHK
# [6] = molecular target: Mitogen-activated protein kinase kinase kinase 8 (Homo sapiens) (UniProt P41279); assay: Inhibition of human COT1 at 100 nM using MEK1 as substrate by [gamma-33P]-ATP assay
# Chain of Mitogen-activated protein kinase kinase kinase 8 (Homo sapiens) (P41279 whole entry): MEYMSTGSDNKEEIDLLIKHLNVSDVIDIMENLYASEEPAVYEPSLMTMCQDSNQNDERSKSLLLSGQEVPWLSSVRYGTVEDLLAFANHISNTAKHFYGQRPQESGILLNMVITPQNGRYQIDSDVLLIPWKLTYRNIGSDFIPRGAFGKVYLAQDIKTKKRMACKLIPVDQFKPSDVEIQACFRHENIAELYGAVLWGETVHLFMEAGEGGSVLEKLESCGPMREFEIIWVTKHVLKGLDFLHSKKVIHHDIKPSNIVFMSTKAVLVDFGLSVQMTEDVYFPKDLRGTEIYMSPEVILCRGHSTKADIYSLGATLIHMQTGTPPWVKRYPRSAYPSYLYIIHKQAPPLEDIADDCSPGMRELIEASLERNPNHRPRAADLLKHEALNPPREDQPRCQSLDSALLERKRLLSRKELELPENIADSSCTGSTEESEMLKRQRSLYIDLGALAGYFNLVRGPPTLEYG
# [7] = molecular target: Serine/threonine-protein kinase DCLK2 (Homo sapiens) (UniProt Q8N568); assay: Inhibition of human DCAMKL2 at 100 nM using KKLNRTLSFAEPG as substrate by [gamma-33P]-ATP assay
# Chain of Serine/threonine-protein kinase DCLK2 (Homo sapiens) (Q8N568 whole entry): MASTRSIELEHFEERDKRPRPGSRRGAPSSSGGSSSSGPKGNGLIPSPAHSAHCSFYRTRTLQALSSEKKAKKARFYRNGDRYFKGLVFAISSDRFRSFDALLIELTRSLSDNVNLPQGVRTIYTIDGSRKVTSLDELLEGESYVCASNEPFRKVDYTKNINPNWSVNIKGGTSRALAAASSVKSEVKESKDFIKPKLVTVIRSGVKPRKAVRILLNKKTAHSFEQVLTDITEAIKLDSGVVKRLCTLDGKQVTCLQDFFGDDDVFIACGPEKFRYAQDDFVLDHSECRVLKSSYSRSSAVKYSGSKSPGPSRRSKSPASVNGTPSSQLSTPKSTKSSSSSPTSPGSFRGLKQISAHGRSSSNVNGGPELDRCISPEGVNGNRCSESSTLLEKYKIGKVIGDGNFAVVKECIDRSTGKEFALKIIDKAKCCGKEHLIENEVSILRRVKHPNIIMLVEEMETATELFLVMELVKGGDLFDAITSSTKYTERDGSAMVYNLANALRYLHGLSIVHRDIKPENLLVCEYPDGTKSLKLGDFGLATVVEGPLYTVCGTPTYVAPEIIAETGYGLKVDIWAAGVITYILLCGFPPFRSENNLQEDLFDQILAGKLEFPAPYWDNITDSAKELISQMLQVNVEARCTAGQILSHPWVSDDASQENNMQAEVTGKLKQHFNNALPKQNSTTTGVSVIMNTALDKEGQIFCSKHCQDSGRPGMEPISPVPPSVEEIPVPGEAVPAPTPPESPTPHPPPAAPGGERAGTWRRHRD
# [8] = molecular target: Ephrin type-B receptor 1 (Homo sapiens) (UniProt P54762); assay: Inhibition of human EPHB1 at 100 nM using poly[Glu:Tyr] (4:1) as substrate by [gamma-33P]-ATP assay
# [9] = molecular target: Ephrin type-B receptor 3 (Homo sapiens) (UniProt P54753); assay: Inhibition of human EPHB3 at 100 nM using poly[Glu:Tyr] (4:1) as substrate by [gamma-33P]-ATP assay
# [10] = molecular target: Mitogen-activated protein kinase 15 (Homo sapiens) (UniProt Q8TD08); assay: Inhibition of human ERK7 at 100 nM using MBP as substrate by [gamma-33P]-ATP assay
# [11] = molecular target: G protein-coupled receptor kinase 3 (Homo sapiens) (UniProt P35626); assay: Inhibition of human GRK3 at 100 nM using casein as substrate by [gamma-33P]-ATP assay
# Chain of G protein-coupled receptor kinase 3 (Homo sapiens) (P35626 whole entry): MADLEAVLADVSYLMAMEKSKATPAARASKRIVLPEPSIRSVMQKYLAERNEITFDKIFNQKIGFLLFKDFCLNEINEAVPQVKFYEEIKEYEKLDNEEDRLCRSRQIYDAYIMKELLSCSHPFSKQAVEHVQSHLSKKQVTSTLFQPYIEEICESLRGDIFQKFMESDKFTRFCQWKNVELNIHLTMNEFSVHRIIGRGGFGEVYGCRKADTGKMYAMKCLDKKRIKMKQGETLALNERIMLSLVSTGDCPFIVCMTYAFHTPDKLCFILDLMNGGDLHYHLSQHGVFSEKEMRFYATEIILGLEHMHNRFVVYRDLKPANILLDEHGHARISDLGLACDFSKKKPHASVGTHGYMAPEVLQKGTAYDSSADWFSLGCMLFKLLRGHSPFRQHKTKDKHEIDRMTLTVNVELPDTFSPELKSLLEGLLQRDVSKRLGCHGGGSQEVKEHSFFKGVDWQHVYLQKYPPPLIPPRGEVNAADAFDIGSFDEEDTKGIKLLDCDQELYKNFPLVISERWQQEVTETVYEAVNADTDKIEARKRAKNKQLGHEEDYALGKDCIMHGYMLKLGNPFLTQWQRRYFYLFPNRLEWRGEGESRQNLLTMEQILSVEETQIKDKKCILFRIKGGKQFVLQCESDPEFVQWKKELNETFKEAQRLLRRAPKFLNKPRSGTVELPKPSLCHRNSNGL
# [12] = molecular target: G protein-coupled receptor kinase 4 (Homo sapiens) (UniProt P32298); assay: Inhibition of human GRK4 at 100 nM using casein as substrate by [gamma-33P]-ATP assay
# [13] = molecular target: Mitogen-activated protein kinase kinase kinase kinase 4 (Homo sapiens) (UniProt O95819); assay: Inhibition of human HGK at 100 nM using MBP as substrate by [gamma-33P]-ATP assay
# [14] = molecular target: Interleukin-1 receptor-associated kinase 1 (Homo sapiens) (UniProt P51617); assay: Inhibition of human IRAK1 at 100 nM using MBP as substrate by [gamma-33P]-ATP assay
# [15] = molecular target: Mitogen-activated protein kinase 8 (Homo sapiens) (UniProt P45983); assay: Inhibition of human JNK1 at 100 nM using ATF2 as substrate by [gamma-33P]-ATP assay
# Chain of Mitogen-activated protein kinase 8 (Homo sapiens) (P45983 whole entry): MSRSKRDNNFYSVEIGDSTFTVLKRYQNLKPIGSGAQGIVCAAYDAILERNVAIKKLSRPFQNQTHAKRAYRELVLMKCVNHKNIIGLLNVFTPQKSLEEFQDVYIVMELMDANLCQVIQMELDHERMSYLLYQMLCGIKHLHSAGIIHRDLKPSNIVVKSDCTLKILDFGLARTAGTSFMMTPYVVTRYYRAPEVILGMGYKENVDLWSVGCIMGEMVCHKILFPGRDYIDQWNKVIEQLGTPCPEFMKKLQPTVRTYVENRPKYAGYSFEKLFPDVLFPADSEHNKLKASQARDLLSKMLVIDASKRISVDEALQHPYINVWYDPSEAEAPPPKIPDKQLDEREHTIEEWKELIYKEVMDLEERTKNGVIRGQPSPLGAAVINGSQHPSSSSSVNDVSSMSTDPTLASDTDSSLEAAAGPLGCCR
# [16] = molecular target: Serine/threonine-protein kinase LATS2 (Homo sapiens) (UniProt Q9NRM7); assay: Inhibition of human LATS2 at 100 nM using KKRNRRLSVA as substrate by [gamma-33P]-ATP assay
# Chain of Serine/threonine-protein kinase LATS2 (Homo sapiens) (Q9NRM7 whole entry): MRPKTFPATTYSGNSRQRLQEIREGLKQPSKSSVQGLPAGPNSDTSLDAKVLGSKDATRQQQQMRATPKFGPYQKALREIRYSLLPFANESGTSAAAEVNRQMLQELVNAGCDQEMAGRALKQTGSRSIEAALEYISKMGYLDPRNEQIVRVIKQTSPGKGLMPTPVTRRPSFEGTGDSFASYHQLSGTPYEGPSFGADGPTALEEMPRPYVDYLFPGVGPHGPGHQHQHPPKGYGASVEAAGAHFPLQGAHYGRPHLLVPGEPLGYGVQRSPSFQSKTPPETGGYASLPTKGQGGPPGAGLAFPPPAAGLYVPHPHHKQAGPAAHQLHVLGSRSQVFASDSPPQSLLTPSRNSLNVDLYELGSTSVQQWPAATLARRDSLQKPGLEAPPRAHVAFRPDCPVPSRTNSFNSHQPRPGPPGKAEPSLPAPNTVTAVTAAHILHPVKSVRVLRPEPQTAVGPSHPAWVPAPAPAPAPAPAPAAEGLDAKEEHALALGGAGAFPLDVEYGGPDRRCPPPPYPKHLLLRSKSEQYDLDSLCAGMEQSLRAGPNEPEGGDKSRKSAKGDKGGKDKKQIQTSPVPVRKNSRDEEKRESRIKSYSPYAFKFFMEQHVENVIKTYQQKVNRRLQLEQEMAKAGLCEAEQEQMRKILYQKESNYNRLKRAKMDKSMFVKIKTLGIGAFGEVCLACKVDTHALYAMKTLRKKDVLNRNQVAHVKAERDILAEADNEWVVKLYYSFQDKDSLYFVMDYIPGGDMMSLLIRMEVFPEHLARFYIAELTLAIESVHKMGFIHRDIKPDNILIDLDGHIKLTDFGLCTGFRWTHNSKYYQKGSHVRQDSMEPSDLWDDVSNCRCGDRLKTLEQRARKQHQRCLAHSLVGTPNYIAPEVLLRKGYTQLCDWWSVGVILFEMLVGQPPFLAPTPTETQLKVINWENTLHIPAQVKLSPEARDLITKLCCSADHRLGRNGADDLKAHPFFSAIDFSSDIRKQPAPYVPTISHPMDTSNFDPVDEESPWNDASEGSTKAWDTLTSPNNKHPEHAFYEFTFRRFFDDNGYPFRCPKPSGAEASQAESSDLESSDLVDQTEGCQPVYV
# [17] = molecular target: MAP kinase-activated protein kinase 5 (Homo sapiens) (UniProt Q8IW41); assay: Inhibition of human MAPKAPK5 at 100 nM using KKLNRTLSVA as substrate by [gamma-33P]-ATP assay
# [18] = molecular target: Dual specificity mitogen-activated protein kinase kinase 5 (Homo sapiens) (UniProt Q13163); assay: Inhibition of human MEK5 at 100 nM using ERK5 as substrate by [gamma-33P]-ATP assay
# [19] = molecular target: Mitogen-activated protein kinase kinase kinase 1 (Homo sapiens) (UniProt Q13233); assay: Inhibition of human MEKK1 at 100 nM using MBP as substrate by [gamma-33P]-ATP assay
# [20] = molecular target: Myosin light chain kinase, smooth muscle (Homo sapiens) (UniProt Q15746); assay: Inhibition of human MLCK at 100 nM using KKLNRTLSFAEPG as substrate by [gamma-33P]-ATP assay
# [21] = molecular target: Serine/threonine-protein kinase PAK 2 (Homo sapiens) (UniProt Q13177); assay: Inhibition of human PAK2 at 100 nM using RRRLSFAEPG as substrate by [gamma-33P]-ATP assay
# Chain of Serine/threonine-protein kinase PAK 2 (Homo sapiens) (Q13177 whole entry): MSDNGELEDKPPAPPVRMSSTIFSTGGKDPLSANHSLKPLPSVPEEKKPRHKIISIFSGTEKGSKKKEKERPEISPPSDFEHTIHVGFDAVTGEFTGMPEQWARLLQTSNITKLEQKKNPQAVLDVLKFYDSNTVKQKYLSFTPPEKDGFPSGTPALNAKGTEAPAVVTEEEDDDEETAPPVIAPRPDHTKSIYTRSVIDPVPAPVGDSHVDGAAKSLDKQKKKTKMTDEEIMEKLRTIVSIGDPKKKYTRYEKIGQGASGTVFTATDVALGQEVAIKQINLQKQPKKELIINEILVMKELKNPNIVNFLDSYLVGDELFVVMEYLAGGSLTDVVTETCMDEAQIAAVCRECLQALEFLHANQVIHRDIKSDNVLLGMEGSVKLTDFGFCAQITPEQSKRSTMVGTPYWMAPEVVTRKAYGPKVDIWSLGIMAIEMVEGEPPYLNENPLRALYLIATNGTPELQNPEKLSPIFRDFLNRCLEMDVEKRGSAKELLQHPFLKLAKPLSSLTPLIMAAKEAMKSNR
# [22] = molecular target: Serine/threonine-protein kinase PAK 6 (Homo sapiens) (UniProt Q9NQU5); assay: Inhibition of human PAK6 at 100 nM using RRRLSFAEPG as substrate by [gamma-33P]-ATP assay
# [23] = molecular target: Lymphokine-activated killer T-cell-originated protein kinase (Homo sapiens) (UniProt Q96KB5); assay: Inhibition of human PBK at 100 nM using MBP as substrate by [gamma-33P]-ATP assay
# Chain of Lymphokine-activated killer T-cell-originated protein kinase (Homo sapiens) (Q96KB5 whole entry): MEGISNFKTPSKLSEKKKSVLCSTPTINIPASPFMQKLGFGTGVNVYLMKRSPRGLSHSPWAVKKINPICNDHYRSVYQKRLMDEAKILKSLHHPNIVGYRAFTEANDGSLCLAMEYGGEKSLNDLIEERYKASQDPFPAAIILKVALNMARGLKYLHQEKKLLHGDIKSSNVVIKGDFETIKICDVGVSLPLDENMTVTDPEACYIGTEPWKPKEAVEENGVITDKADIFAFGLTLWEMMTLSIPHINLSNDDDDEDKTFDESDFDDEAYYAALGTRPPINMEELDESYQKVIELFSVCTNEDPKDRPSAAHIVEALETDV
# [24] = molecular target: Protein kinase C epsilon type (Homo sapiens) (UniProt Q02156); assay: Inhibition of human PKCepsilon at 100 nM using ERMRPRKRQGSVRRRV as substrate by [gamma-33P]-ATP assay
# [25] = molecular target: Serine/threonine-protein kinase SIK2 (Homo sapiens) (UniProt Q9H0K1); assay: Inhibition of human SIK2 at 100 nM using AMARAASAAALARRR as substrate by [gamma-33P]-ATP assay
# [26] = molecular target: Tyrosine-protein kinase Srms (Homo sapiens) (UniProt Q9H3Y6); assay: Inhibition of human SRMS at 100 nM using poly[Glu:Tyr] (4:1) as substrate by [gamma-33P]-ATP assay
# [27] = molecular target: Tau-tubulin kinase 1 (Homo sapiens) (UniProt Q5TCY1); assay: Inhibition of human TTBK1 at 100 nM using MBP as substrate by [gamma-33P]-ATP assay
# [28] = molecular target: Serine/threonine-protein kinase WNK2 (Homo sapiens) (UniProt Q9Y3S1); assay: Inhibition of human WNK2 at 100 nM using MBP as substrate by [gamma-33P]-ATP assay
# [29] = molecular target: Death-associated protein kinase 3 (Homo sapiens) (UniProt O43293); assay: Inhibition of human ZIPK at 100 nM using KKLNRTLSFAEPG as substrate by [gamma-33P]-ATP assay
# [30] = molecular target: Serine/threonine-protein kinase mTOR (Homo sapiens, UniProt P42345); assay: Inhibition of human mTOR at 100 nM using 4EBP1 as substrate by [gamma-33P]-ATP assay
# [31] = molecular target: [Pyruvate dehydrogenase (acetyl-transferring)] kinase isozyme 4, mitochondrial (Homo sapiens) (UniProt Q16654); assay: Inhibition of human PDK4 at 100 nM using MBP as substrate by [gamma-33P]-ATP assay
smiles,measurement,setting,value
COc1ccc(N2C(=O)COc3ccc(-c4cnc(OC)c(NS(=O)(=O)c5ccc(F)cc5)c4)cc32)cc1,inhibition in vivo at 20 mg/kg,[1],66.6%
same,inhibition,[2],14.3%
same,inhibition,[3],4.76%
same,inhibition,[4],0.23%
same,inhibition,[5],1.74%
same,inhibition,[6],13%
same,inhibition,[7],2.1%
same,inhibition,[8],8.67%
same,inhibition,[9],-1.65%
same,inhibition,[10],-4.54%
same,inhibition,[11],-4.85%
same,inhibition,[12],1.46%
same,inhibition,[13],19.4%
same,inhibition,[14],-5.22%
same,inhibition,[15],-0.95%
same,inhibition,[16],10.9%
same,inhibition,[17],5.14%
same,inhibition,[18],-3.16%
same,inhibition,[19],6.33%
same,inhibition,[20],7.23%
same,inhibition,[21],10.4%
same,inhibition,[22],2.76%
same,inhibition,[23],0.99%
same,inhibition,[24],3.65%
same,inhibition,[25],-3.42%
same,inhibition,[26],14.2%
same,inhibition,[27],-1.55%
same,inhibition,[28],2.82%
same,inhibition,[29],0.68%
same,inhibition,[30],67.5%
same,inhibition,[31],-4.54%
